According to EP2666766A1, “Novel E,E-diene compounds and their use as medicaments and cosmetics” (Dr. August Wolff GmbH & Co. KG Arzneimittel, priority 2012, dated 2013):

system: Arachidonoylethanolamide Transport (AEAT); test: Cellular uptake of [3H]-AEA (inhibition of AEA transport); assay type: cell-based; details: Homo sapiens, U-937, 0.25 h; U937 cells; 100 nM AEA, 15 min, 37°C
Experimental: C. Cellular uptake of [^3H]-AEA
Human lymphoma U937 cells were grown in RPMI 1640 medium (Invitrogen, Basel, Switzerland) supplemented with 10% fetal bovine serum, […] fungizone (amphotericin B), 100 units/ml penicillin, 100 µg/ml streptomycin, and 2 mM L-glutamine (all from Invitrogen) and selected for the cellular AEA uptake assay. 2.5 x 10^6 cells were collected and suspended in 250 µL of RPMI 1640 medium (Invitrogen, Basel, Switzerland) at 37°C using glass silanized vials. Cells were pre-incubated 15 min at 37°C in presence of test compounds in a concentration range of 10^-11 - 10^-5 M or in presence of the same amount (5 µl) of vehicle control (DMSO). Then a mixture of 0.5 nM [^3H]-AEA (60 Ci/mmol) (American Radiolabeled Chemicals, Inc., San Louis, MO, US) and 99.5 nM of nonradioactive AEA (Tocris Cookson Ltd., Bristol, UK) resulting in a final concentration of 100 nM AEA was added and samples were incubated at 37°C for another 15 minutes. The reaction was stopped by rapid filtration over UniFilter®-96 GF/C (Perkin Elmer, Boston MA, US) pre-soaked with PBS 0.25 % BSA (w/v). Cells were washed three times with ice-cold PBS buffer containing 1% fatty acid free BSA (137 mM NaCl, 2.7 mM KCl, 10 mM Na2HPO4, 1.76 mM KH2PO4, 1% BSA fatty acid free, pH 7.4), dried and 40 µL MicroScint 20 scintillation cocktail (Perkin Elmer, Waltham, MA, US) was added. Radioactivity was measured using a Perkin Elmer 1450 Microbeta TRILUX liquid scintillation counter. Results were expressed as % of AEA uptake versus cells treated with solvent and the EC50 and IC50 values were calculated from the sigmoidal curves, which were generated using the GraphPad Prism 5.0 (GraphPad Software, San Diego, CA, US). Table 2: Inhibition of Arachidonoylethanolamide Transport (AEAT) (Determination as Described in Biological Assays C)

Row | EC50 | SMILES
1 | 6 nM | CCCCCOC/C=C/C=C/CNC(=O)NCCc1ccc(O)c(O)c1 [Example 3]
2 | 3 nM | CCCCOCC/C=C/C=C/CNC(=O)OCc1cc(C(=O)OCC)no1 [Example 9]
3 | 6 nM | CCCCOCC/C=C/C=C/CNC(=O)OCc1cc(C(=O)N(C)C)no1 [Example 12]
4 | 0.573 nM | CCCCOCC/C=C/C=C/CNC(=O)OCc1cc(C(=O)NC)no1 [Example 13]
5 | 286 nM | CCCCOCC/C=C/C=C/CN(C)C(=O)OCc1cc(C(=O)OCC)no1 [Example 14]
6 | 70 nM | CCCCOCC/C=C/C=C/CN(C)C(=O)OCc1cc(C(N)=O)no1 [Example 15]
7 | 7 nM | CCCCOCC/C=C/C=C/CN(C)C(=O)OCc1cc(C(=O)NC)no1 [Example 16]
8 | 81 nM | CCCCOCC/C=C/C=C/CN(C)C(=O)OCc1cc(C(=O)N(C)C)no1 [Example 17]
9 | 9 nM | CCCCOCC/C=C/C=C/CNC(=O)OCc1cc(C(N)=O)no1 [Example 18]

Row | SMILES | EC50
10 | CCCCCOC/C=C/C=C/CNC(=O)OCc1ccncc1 [Example 1] | 147 nM
